According to PubChem BioAssay AID1963875 (Molecular Pharmacology Branch, DTP, NCI, 2024):

System: KRAS-mutant PDC complex spheroid viability
Assay: Anticancer human tumor 186277-243-T-J2-PDC patient-derived colon adenocarcinoma cell line growth inhibition [KRAS2]
Conditions: for IC50: curve of first compound; for viability, T/C: stronger effect = lower value
Method in brief: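 KRAS-mutant tumor cells were grown as spheroids with HUVEC endothelial cells and human MSCs as stroma. Targeted agents were tested alone and with KRAS pathway inhibitors. Doses started at or near clinical Cmax, or 10 microM, descending half-log.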

[1] = second compound 0.1 µM, first compound 0.0316 µM
[2] = second compound 0.1 µM, first compound 0.1 µM
[3] = second compound 0.1 µM, first compound 0.316 µM
[4] = second compound 0.1 µM, first compound 1 µM
[5] = second compound 0.1 µM, first compound 3.16 µM
[6] = second compound 0.1 µM, first compound 10 µM
[7] = second compound 0.316 µM, first compound 0.0316 µM
[8] = second compound 0.316 µM, first compound 0.1 µM
[9] = second compound 0.316 µM, first compound 0.316 µM
[10] = second compound 0.316 µM, first compound 1 µM
[11] = second compound 0.316 µM, first compound 3.16 µM
[12] = second compound 0.316 µM, first compound 10 µM
[13] = second compound 1 µM, first compound 0.0316 µM
[14] = second compound 1 µM, first compound 0.1 µM
[15] = second compound 1 µM, first compound 0.316 µM
[16] = second compound 1 µM, first compound 1 µM
[17] = second compound 1 µM, first compound 3.16 µM
[18] = second compound 1 µM, first compound 10 µM
[19] = second compound 3.16 µM, first compound 0.0316 µM
[20] = second compound 3.16 µM, first compound 0.1 µM
[21] = second compound 3.16 µM, first compound 0.316 µM
[22] = second compound 3.16 µM, first compound 1 µM
[23] = second compound 3.16 µM, first compound 3.16 µM
[24] = second compound 3.16 µM, first compound 10 µM
[25] = second compound 10 µM, first compound 0.0316 µM
[26] = second compound 10 µM, first compound 0.1 µM
[27] = second compound 10 µM, first compound 0.316 µM
[28] = second compound 10 µM, first compound 1 µM
[29] = second compound 10 µM, first compound 3.16 µM
[30] = second compound 10 µM, first compound 10 µM
[31] = second compound 0.1 µM, first compound 0.00316 µM
[32] = second compound 0.1 µM, first compound 0.01 µM
[33] = second compound 0.316 µM, first compound 0.00316 µM
[34] = second compound 0.316 µM, first compound 0.01 µM
[35] = second compound 1 µM, first compound 0.00316 µM
[36] = second compound 1 µM, first compound 0.01 µM
[37] = second compound 3.16 µM, first compound 0.00316 µM
[38] = second compound 3.16 µM, first compound 0.01 µM
[39] = second compound 10 µM, first compound 0.00316 µM
[40] = second compound 10 µM, first compound 0.01 µM
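For viability, T/C in this document: viability read after seven days of compound exposure; 100% = DMSO vehicle-treated spheroids so lower means less viable.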

Row | Structure (SMILES) | IC50 (second compound 0.1 µM) [nM] | IC50 (second compound 0.316 µM) [nM] | IC50 (second compound 1 µM) [nM] | IC50 (second compound 3.16 µM) [nM] | IC50 (second compound 10 µM) [nM] | viability, T/C [1] [%] | viability, T/C [2] [%] | viability, T/C [3] [%] | viability, T/C [4] [%] | viability, T/C [7] [%] | viability, T/C [8] [%] | viability, T/C [9] [%] | viability, T/C [10] [%] | viability, T/C [13] [%] | viability, T/C [14] [%] | viability, T/C [15] [%] | viability, T/C [19] [%] | viability, T/C [20] [%] | viability, T/C [25] [%] | viability, T/C [26] [%] | other results
1 | CC(C)NCC(C(=O)N1CCN(c2ncnc3c2C(C)CC3O)CC1)c1ccc(Cl)cc1 (stereo not given) + COc1cc2nc(C)nc(NC(C)c3cc(N)cc(C(F)(F)F)c3)c2cc1OC1CCOC1 | 414 | 305 | 359 | 571 | 36.4 | 103 | 83.4 | 54.8 | 34.8 | 100 | 85.4 | 47.2 | 21.6 | 98.2 | 87.8 | 50.2 | 107 | 90.4 | 52.4 | 34.7 | viability, T/C [5]: 3.87%; viability, T/C [6]: 7.18%; viability, T/C [11]: 1.85%; viability, T/C [12]: 7.05%; viability, T/C [16]: 24.6%; viability, T/C [17]: 1.87%; viability, T/C [18]: 0.23%; viability, T/C [21]: 96.5%; viability, T/C [22]: 5.81%; viability, T/C [23]: 0.99%; viability, T/C [24]: 8.22%; viability, T/C [27]: 18.7%; viability, T/C [28]: 0.82%; viability, T/C [29]: 0.18%; viability, T/C [30]: 0.39%
2 | CC1(C)CCC(CN2CCN(c3ccc(C(=O)NS(=O)(=O)c4ccc(NCC5CCOCC5)c([N+](=O)[O-])c4)c(Oc4cnc5[nH]ccc5c4)c3)CC2)=C(c2ccc(Cl)cc2)C1 + COc1cc2nc(C)nc(NC(C)c3cc(N)cc(C(F)(F)F)c3)c2cc1OC1CCOC1 | 2190 | 2070 | 1980 | 2070 | 472 | 102 | 99.2 | 108 | 99.7 | 92.5 | 107 | 104 | 103 | 104 | 108 | 110 | 106 | 103 | 77.3 | 91.8 | viability, T/C [5]: 26.4%; viability, T/C [6]: 0.68%; viability, T/C [11]: 19.9%; viability, T/C [12]: 0.6%; viability, T/C [16]: 100%; viability, T/C [17]: 15.7%; viability, T/C [18]: 1.19%; viability, T/C [21]: 111%; viability, T/C [22]: 115%; viability, T/C [23]: 15.6%; viability, T/C [24]: 1.05%; viability, T/C [27]: 53.2%; viability, T/C [28]: 33.6%; viability, T/C [29]: 5.28%; viability, T/C [30]: 0.64%
3 | CCN1CCN(Cc2ccc(Nc3ncc(F)c(-c4cc(F)c5nc(C)n(C(C)C)c5c4)n3)nc2)CC1 + COc1cc2nc(C)nc(NC(C)c3cc(N)cc(C(F)(F)F)c3)c2cc1OC1CCOC1 | > 1000 | > 1000 | > 1000 | 714 | 64 | 118 | 165 | 173 | 69.4 | 130 | 163 | 146 | 58 | 115 | 157 | 123 | 138 | 157 | 100 | 18.2 | viability, T/C [31]: 97.9%; viability, T/C [32]: 93.2%; viability, T/C [33]: 101%; viability, T/C [34]: 93.6%; viability, T/C [35]: 96%; viability, T/C [36]: 109%; viability, T/C [16]: 50.9%; viability, T/C [37]: 91.9%; viability, T/C [38]: 98.1%; viability, T/C [21]: 108%; viability, T/C [22]: 26.4%; viability, T/C [39]: 103%; viability, T/C [40]: 104%; viability, T/C [27]: 4.89%; viability, T/C [28]: 0.61%
4 | Cn1ncnc1[C@H]1c2n[nH]c(=O)c3cc(F)cc(c23)N[C@@H]1c1ccc(F)cc1 + COc1cc2nc(C)nc(NC(C)c3cc(N)cc(C(F)(F)F)c3)c2cc1OC1CCOC1 | > 100 | > 100 | > 100 | > 100 | 9.92 | 103 | 79.1 |  |  | 90.5 | 74.5 |  |  | 83.4 | 64.5 |  | 74.7 | 63.9 | 42.2 | 25 | viability, T/C (second compound 0.1 µM, first compound 0.000316 µM): 98.7%; viability, T/C (second compound 0.1 µM, first compound 0.001 µM): 107%; viability, T/C [31]: 106%; viability, T/C [32]: 109%; viability, T/C (second compound 0.316 µM, first compound 0.000316 µM): 108%; viability, T/C (second compound 0.316 µM, first compound 0.001 µM): 120%; viability, T/C [33]: 105%; viability, T/C [34]: 89.4%; viability, T/C (second compound 1 µM, first compound 0.000316 µM): 109%; viability, T/C (second compound 1 µM, first compound 0.001 µM): 112%; viability, T/C [35]: 104%; viability, T/C [36]: 99.2%; viability, T/C (second compound 3.16 µM, first compound 0.000316 µM): 81.8%; viability, T/C (second compound 3.16 µM, first compound 0.001 µM): 116%; viability, T/C [37]: 108%; viability, T/C [38]: 86.3%; viability, T/C (second compound 10 µM, first compound 0.000316 µM): 79.2%; viability, T/C (second compound 10 µM, first compound 0.001 µM): 68.5%; viability, T/C [39]: 63.6%; viability, T/C [40]: 45.5%
